Measured values published in patent US12576150B2, “CD4+ T cells expressing IL-10 and chimeric antigen receptors and uses thereof” (TR1X, INC., priority 2021, dated 2026).

Tested on: NLPR3 inflammasome, LPS activated monocytes
Test: IL-1β production by LPS activated monocytes
Assay type: cell-based, human
Conditions: with anti-IL-10 receptor antibody
Method: CD14^+ monocytes were isolated from PBMC using a pan monocyte isolation kit (Miltenyi Biotec, Bergisch Gladbach, Germany) and plated in 96 flat microtiter wells at 2×10^5/200 μL per well and cultured in the presence of LPS. The cells were cultured further in the presence of Z-YVADfmk (20 μM), MMC950 (10 μM), IL-10 (10 ng/ml) or various concentrations of single- or pooled donor […] cell supernatants as summarized in Table 1.
The supernatants were obtained from single- or pooled donor CD4^IL-10 cells activated for 72 hours with a combination of CD3 and CD28 antibodies as described previously. (Andolfi et al. 2012, Mol. Therapy Vol. 20, 1778-1790, Locafaro et al. Mol Ther 2017, 25, 2254) In some cases (FIGS. 35C and 35D), the monocytes were incubated with LPS in combination with the NLPR3 inflammasome activator nigericin (“NIG”) which was added during the last 30 minutes of the LPS activation.

**Q.** With `CC(C)(O)c1coc(S(=O)(=O)NC(=O)Nc2c3c(cc4c2CCC4)CCC3)c1` [MCC950] as the molecule, how does the “effect of anti-IL-10 receptor antibody on the inhibition of IL-1β production” value read?
**A.** no effect

**Q.** For `COC(=O)C[C@H](NC(=O)[C@H](C)NC(=O)[C@@H](NC(=O)[C@H](Cc1ccc(O)cc1)NC(=O)OCc1ccccc1)C(C)C)C(=O)CF` [Z-YVADfmk], which “effect of anti-IL-10 receptor antibody on the inhibition of IL-1β production” value is on record?
**A.** no effect
